The results in this text go back to PubChem BioAssay AID2060506 (Molecular Pharmacology Branch, DTP, NCI, 2025).

Usually viability, T/C stands for the result in the treated group divided by that in the control group, in per cent. Broadly, the IC50 is the concentration that gives 50% inhibition.

The test concerns 598228-144-R-J1-PDC complex spheroid viability. The test can be described thus: Anticancer human tumor 598228-144-R-J1-PDC patient-derived serous endometrial adenocarcinoma cell line growth inhibition [GQUAD]. The conditions noted are these: for viability, T/C: stronger effect = lower value. An excerpt: DNA G-quadruplex Stabilizer Agents in Combinations in Complex Spheroids
A high-throughput screen of multi-cell type tumor spheroids was designed to identify active combinations of DNA G-quadruplex stabilizer agents and targeted small molecules. Complex spheroids include a stromal component modeled by human endothelial cells (HUVEC) and fibroblasts modeled by human mesenchymal stem cells (MSCs). The concentration ranges selected for each drug and investigational agent were based upon clinically achievable concentrations if the clinical Cmax of the agent was known.
Compounds. The drugs and investigational agents: pidnarulex (CX-5461; NSC782164), APTO-253 (NSC789042), BRACO-19 (NSC847499), peposertib (NSC802822), ceralasertib (NSC780249), elimusertib (NSC800525), camonsertib (NSC841442), AZD-1390 (NSC803789), olaparib (NSC753686), talazoparib (NSC767125), ART-558 (NSC835418), sotorasib (NSC818433), MRTX-1133 (NSC836407), SN-38 (NSC673596), topotecan (NSC609699), etoposide (NSC141540), doxorubicin (NSC123127), gemcitabine (NSC613327), 5-fluorouracil (NSC19893), paclitaxel (NSC125973), vemurafenib (NSC761431), panobinostat (NSC761190), R-306465 (JNJ-16241199; NSC773264), adavosertib (NSC754352), TP-3654 (NSC805149), carboplatin (NSC241240), KSQ-4279 (NSC840948), and staurosporine (NSC755774) were obtained from the National Cancer Institute (NCI) Developmental Therapeutics Program Chemical Repository (34). The FDA-approved anticancer drug set is available from the NCI Developmental Therapeutics Program. […] The stock solutions were prepared in dimethyl sulfoxide (DMSO, Sigma-Aldrich, St. Louis, MO, cat. D2650) at 800-fold the tested concentration and stored at -70 degrees C prior to their use. All drugs and investigational agents were tested over a range starting from a high concentration at or near the clinical Cmax and decreasing in half-log increments. If the clinical Cmax for an agent had not been determined, the highest concentration tested was 10 microM.
2.3 Cell Culture. All cells were maintained in an incubator at 37 degrees C and 5% CO2 with 95% humidity. The PDC lines were cultured according to standard operating procedures established by the NCI PDMR. All PDCs were thawed and cultured in Matrigel-coated flasks prepared with a working solution of 1X Ham's F-12 nutrient mix, without supplementation (Invitrogen, cat. 11765054), 100 U/mL penicillin-streptomycin (Invitrogen, cat. 15140122), and 2.5% Matrigel (Corning Inc., cat. 354248) for the first three passages. The 857933-349-R-J2-PDC line was cultured in 6C/Colon 1B media, which includes advanced DMEM/F-12 (Thermo Fisher Scientific, cat. 12634028), 10 mM HEPES (Thermo Fisher Scientific, cat. 15630080), 1X GlutaMAX supplement (Thermo Fisher Scientific, cat. 35050061), 0.1 mg/mL primocin (InvivoGen, cat. ant-pm-2), 10% defined fetal bovine serum, heat inactivated (HyClone Laboratories Inc., cat. SH30070.03HI), 50% L-WRN conditioned media (ATCC, cat. CRL-3276), 1.25 mM N-Acetyl-L-cysteine (Sigma-Aldrich, cat. A9165), 10 mM nicotinamide (Sigma-Aldrich, cat. N0636), 1X B-27 supplement (Thermo Fisher Scientific, cat. 17504044), 1X N-2 supplement (Thermo Fisher Scientific, cat. 17502048), 10 microM Y-27632 dihydrochloride (Tocris Bioscience, cat. 1254), and 50 ng/mL human EGF recombinant protein (Thermo Fisher Scientific, cat. PHG0311). The 485176-168-R4-J1-PDC line was cultured in Panc media, which includes all 6C/Colon 1B media components plus 100 ng/mL human FGF-10 (Thermo Fisher Scientific, cat. 100-26), 500 nM SB-431542 (Selleckchem, cat. S1067), and gastrin (Tocris, cat. 3006).
[…]

SMILES strings stand for the structures. Several values for one entry are separate records, joined by “and”; a condition that tells them apart may be missing. Equal values may be shown once.
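Note: spheroids exposed to the agents for one week before reading.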
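Throughout, for viability, T/C: percent of vehicle DMSO control viability so 100% = untreated growth.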

Consider `O=C(c1cc(Cc2n[nH]c(=O)c3ccccc23)ccc1F)N1CCN(C(=O)C2CC2)CC1`, for which the viability, T/C (compound 0.0316 µM) is 99.5% and 83.8% and 109%; the viability, T/C (compound 0.1 µM) was 96.3% and 85.6% and 96.4%; the viability, T/C (compound 0.316 µM) is 88.2% and 96.8% (2×); the viability, T/C (compound 1 µM) is 118% and 79.3% and 98.2%; the viability, T/C (compound 3.16 µM) is 81% and 79.2% and 90.8%; the viability, T/C (compound 10 µM) is 74.8% and 64.3% and 66.1%. Further, the IC50 (curve of compound) is over 10 µM.
For `CC(C)n1c(=O)n(C)c2cnc3cc(F)c(-c4ccc(OCCCN5CCCCC5)nc4)cc3c21`, the viability, T/C reads like this: (compound 0.0316 µM) 109% and 90.8% and 106%; (compound 0.1 µM) 91.9% and 85.2% and 84.2%; (compound 0.316 µM) 101% and 92.4% and 109%; (compound 1 µM) 115% and 111% and 96.7%; (compound 3.16 µM) 94.2% and 74.5% and 67.8%; (compound 10 µM) 60.8% and 56.7% and 68.5%. The IC50 (curve of compound) is over 10 µM.
With `COc1ccc([C@@H](O)c2cc(-c3ncnc4cc(N5CCOCC5)ccc34)c(F)cc2Cl)nn1`, the viability, T/C reads like this: (compound 0.0316 µM) 97.8% and 102% and 84.3%; (compound 0.1 µM) 90% and 101% and 85.3%; (compound 0.316 µM) 89.9% and 67.4% and 82.6%; (compound 1 µM) 74.7% and 62.1% and 82.8%; (compound 3.16 µM) 52.1% and 42.8% and 49.9%; (compound 10 µM) 32.1% and 30% and 30.5%. For the setting “curve of compound”, the IC50 was 3.6 µM and 1.8 µM and 3.15 µM.
Consider `CC(C)n1c(=O)n(C)c2cnc3cc(F)c(-c4ccc(OCCCN5CCCCC5)nc4)cc3c21` + Cc1[nH]c2ccc(F)cc2c1-c1nc2c3cccnc3c3ncccc3c2[nH]1, for which the IC50 is over 10 µM (curve of first compound, second compound 0.0316 µM); over 10 µM (curve of first compound, second compound 0.1 µM); over 10 µM (curve of first compound, second compound 0.316 µM); 5.12 µM (curve of first compound, second compound 1 µM); under 0.0316 µM (curve of first compound, second compound 3.16 µM); over 10 µM (curve of first compound, second compound 10 µM). In addition, the viability, T/C was 116% (second compound 0.0316 µM, first compound 0.0316 µM); 100% (second compound 0.0316 µM, first compound 0.1 µM); 117% (second compound 0.0316 µM, first compound 0.316 µM); 121% (second compound 0.0316 µM, first compound 1 µM); 106% (second compound 0.0316 µM, first compound 3.16 µM); 65% (second compound 0.0316 µM, first compound 10 µM). The viability, T/C runs as follows: (second compound 0.1 µM, first compound 0.0316 µM) 107%; (second compound 0.1 µM, first compound 0.1 µM) 108%; (second compound 0.1 µM, first compound 0.316 µM) 95.4%; (second compound 0.1 µM, first compound 1 µM) 94.4%; (second compound 0.1 µM, first compound 3.16 µM) 91.7%; (second compound 0.1 µM, first compound 10 µM) 77%. Also, the viability, T/C by setting is: (second compound 0.316 µM, first compound 0.0316 µM) 90.8%; (second compound 0.316 µM, first compound 0.1 µM) 97.2%; (second compound 0.316 µM, first compound 0.316 µM) 93.9%; (second compound 0.316 µM, first compound 1 µM) 87.4%; (second compound 0.316 µM, first compound 3.16 µM) 101%; (second compound 0.316 µM, first compound 10 µM) 62.2%. In addition, the viability, T/C reads like this: (second compound 1 µM, first compound 0.0316 µM) 72.6%; (second compound 1 µM, first compound 0.1 µM) 60.6%; (second compound 1 µM, first compound 0.316 µM) 59.2%; (second compound 1 µM, first compound 1 µM) 60.6%; (second compound 1 µM, first compound 3.16 µM) 59.2%; (second compound 1 µM, first compound 10 µM) 39.5%. Further, the viability, T/C reads like this: (second compound 3.16 µM, first compound 0.0316 µM) 45.2%; (second compound 3.16 µM, first compound 0.1 µM) 47.4%; (second compound 3.16 µM, first compound 0.316 µM) 40.8%; (second compound 3.16 µM, first compound 1 µM) 39.3%; (second compound 3.16 µM, first compound 3.16 µM) 29.5%; (second compound 3.16 µM, first compound 10 µM) 27.3%. For the same molecule, the viability, T/C was 66% (second compound 10 µM, first compound 0.0316 µM); 57.9% (second compound 10 µM, first compound 0.1 µM); 52.9% (second compound 10 µM, first compound 0.316 µM); 54.1% (second compound 10 µM, first compound 1 µM); 55.4% (second compound 10 µM, first compound 3.16 µM); 46.5% (second compound 10 µM, first compound 10 µM).
